According to ChEMBL document CHEMBL1201862, “PubChem BioAssay data set” (2004):
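A five-concentration, 48-hour dose response in 96-well plates underlies each endpoint, interpolated linearly between surrounding concentrations. GI50 is the concentration that inhibits growth by half.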 Active and inactive are the calls of the source. Rule as the data show it: active = GI50 up to about 1.1 µM and inactive = higher.

How the values were obtained:
Experiment in all cases: NCI-60 cell line screen, 48 h
[1] = test system: 786-0
[2] = test system: A498
[3] = test system: A549
[4] = test system: ACHN
[5] = test system: CAKI-1
[6] = test system: CCRF-CEM
[7] = test system: COLO 205
[8] = test system: EKVX
[9] = test system: HCC 2998
[10] = test system: HCT-116
[11] = test system: HCT-15
[12] = test system: HL-60
[13] = test system: HOP-62
[14] = test system: HOP-92
[15] = test system: HT-29
[16] = test system: IGROV-1
[17] = test system: K562
[18] = test system: KM12
[19] = test system: LXFL 529
[20] = test system: M14
[21] = test system: M19-MEL
[22] = test system: MOLT-4
[23] = test system: Malme-3M
[24] = test system: NCI-H226
[25] = test system: NCI-H23
[26] = test system: NCI-H460
[27] = test system: NCI-H522
[28] = test system: OVCAR-3
[29] = test system: OVCAR-4
[30] = test system: OVCAR-5
[31] = test system: OVCAR-8
[32] = test system: RPMI-8226
[33] = test system: RXF 393
[34] = test system: SF-268
[35] = test system: SF-295
[36] = test system: SF-539
[37] = test system: SK-MEL-28
[38] = test system: SK-MEL-2
[39] = test system: SK-MEL-5
[40] = test system: SK-OV-3
[41] = test system: SN12C
[42] = test system: SNB-19
[43] = test system: SNB-75
[44] = test system: SNB-78
[45] = test system: SW-620
[46] = test system: TK-10
[47] = test system: U-251
[48] = test system: UACC-257
[49] = test system: UACC-62
[50] = test system: XF498
[51] = test system: DLD-1
[52] = test system: DMS-114
[53] = test system: DMS-273
[54] = test system: KM-20L2
[55] = test system: LOX IMVI
[56] = test system: SR
[57] = test system: UO-31

O=CC[C@H]1C(=O)C[C@@H]2CCC[C@@H]21
GI50 [1]: > 100 µM (inactive) | GI50 [2]: > 100 µM (inactive) | GI50 [3]: > 100 µM (inactive) | GI50 [4]: > 100 µM (inactive) | GI50 [5]: > 100 µM (inactive) | GI50 [6]: 34.1 µM (inactive) | GI50 [7]: > 100 µM (inactive) | GI50 [8]: > 100 µM (inactive) | GI50 [9]: > 100 µM (inactive) | GI50 [10]: 37.2 µM (inactive) | GI50 [11]: 45.7 µM | GI50 [12]: 32.1 µM (inactive) | GI50 [13]: > 100 µM (inactive) | GI50 [14]: 57.3 µM (inactive) | GI50 [15]: 94 µM (inactive) | GI50 [16]: > 100 µM (inactive) | GI50 [17]: 34.2 µM (inactive) | GI50 [18]: 51.8 µM (inactive) | GI50 [19]: 48 µM (inactive) | GI50 [20]: 68.2 µM (inactive) | GI50 [21]: 56.2 µM (inactive) | GI50 [22]: 43.4 µM (inactive) | GI50 [23]: > 100 µM (inactive) | GI50 [24]: 80.4 µM (inactive) | GI50 [25]: 43.7 µM (inactive) | GI50 [26]: > 100 µM (inactive) | GI50 [27]: > 100 µM (inactive) | GI50 [28]: 47.6 µM (inactive) | GI50 [29]: > 100 µM (inactive) | GI50 [30]: > 100 µM (inactive) | GI50 [31]: 43.1 µM (inactive) | GI50 [32]: 42.4 µM (inactive) | GI50 [33]: 29.6 µM (inactive) | GI50 [34]: 89.1 µM (inactive) | GI50 [35]: > 100 µM (inactive) | GI50 [36]: 50.1 µM (inactive) | GI50 [37]: > 100 µM (inactive) | GI50 [38]: 59.2 µM (inactive) | GI50 [39]: 33.5 µM (inactive) | GI50 [40]: > 100 µM (inactive) | GI50 [41]: 92.3 µM (inactive) | GI50 [42]: > 100 µM (inactive) | GI50 [43]: 64.4 µM (inactive) | GI50 [44]: > 100 µM (inactive) | GI50 [45]: 46.9 µM (inactive) | GI50 [46]: > 100 µM (inactive) | GI50 [47]: 98.6 µM (inactive) | GI50 [48]: > 100 µM (inactive) | GI50 [49]: 84.3 µM (inactive) | GI50 [50]: > 100 µM (inactive)

CN(C)CC(/C(Cc1ccccc1)=N\NC(=S)NN)c1ccccc1 (configuration not stated)
GI50 [1]: > 100 µM (inactive) | GI50 [3]: > 100 µM (inactive) | GI50 [4]: > 100 µM (inactive) | GI50 [5]: > 100 µM (inactive) | GI50 [7]: > 100 µM (inactive) | GI50 [51]: > 100 µM (inactive) | GI50 [52]: > 100 µM (inactive) | GI50 [53]: > 100 µM (inactive) | GI50 [9]: > 100 µM (inactive) | GI50 [10]: > 100 µM (inactive) | GI50 [11]: > 100 µM | GI50 [12]: > 100 µM (inactive) | GI50 [13]: > 100 µM (inactive) | GI50 [14]: > 100 µM (inactive) | GI50 [15]: > 100 µM (inactive) | GI50 [16]: > 100 µM (inactive) | GI50 [17]: > 100 µM (inactive) | GI50 [54]: > 100 µM (inactive) | GI50 [18]: > 100 µM (inactive) | GI50 [55]: > 100 µM (inactive) | GI50 [19]: > 100 µM (inactive) | GI50 [20]: > 100 µM (inactive) | GI50 [21]: > 100 µM (inactive) | GI50 [22]: > 100 µM (inactive) | GI50 [23]: > 100 µM (inactive) | GI50 [24]: > 100 µM (inactive) | GI50 [25]: > 100 µM (inactive) | GI50 [26]: > 100 µM (inactive) | GI50 [27]: > 100 µM (inactive) | GI50 [28]: > 100 µM (inactive) | GI50 [29]: > 100 µM (inactive) | GI50 [30]: > 100 µM (inactive) | GI50 [31]: > 100 µM (inactive) | GI50 [32]: > 100 µM (inactive) | GI50 [33]: > 100 µM (inactive) | GI50 [34]: > 100 µM (inactive) | GI50 [35]: > 100 µM (inactive) | GI50 [36]: > 100 µM (inactive) | GI50 [37]: > 100 µM (inactive) | GI50 [40]: > 100 µM (inactive) | GI50 [41]: > 100 µM (inactive) | GI50 [42]: > 100 µM (inactive) | GI50 [43]: > 100 µM (inactive) | GI50 [44]: > 100 µM (inactive) | GI50 [56]: > 100 µM (inactive) | GI50 [45]: > 100 µM (inactive) | GI50 [46]: > 100 µM (inactive) | GI50 [47]: > 100 µM (inactive) | GI50 [48]: > 100 µM (inactive) | GI50 [49]: > 100 µM (inactive) | GI50 [57]: > 100 µM (inactive) | GI50 [50]: > 100 µM (inactive)
